Target: T1, recombinant human NK3 receptor (Homo sapiens, UniProt P29371)
T1 construct: expressed in transfected cells; host or cells: HEK293 cells, transient expression; membrane preparation
T1 sequence (P29371 1-465): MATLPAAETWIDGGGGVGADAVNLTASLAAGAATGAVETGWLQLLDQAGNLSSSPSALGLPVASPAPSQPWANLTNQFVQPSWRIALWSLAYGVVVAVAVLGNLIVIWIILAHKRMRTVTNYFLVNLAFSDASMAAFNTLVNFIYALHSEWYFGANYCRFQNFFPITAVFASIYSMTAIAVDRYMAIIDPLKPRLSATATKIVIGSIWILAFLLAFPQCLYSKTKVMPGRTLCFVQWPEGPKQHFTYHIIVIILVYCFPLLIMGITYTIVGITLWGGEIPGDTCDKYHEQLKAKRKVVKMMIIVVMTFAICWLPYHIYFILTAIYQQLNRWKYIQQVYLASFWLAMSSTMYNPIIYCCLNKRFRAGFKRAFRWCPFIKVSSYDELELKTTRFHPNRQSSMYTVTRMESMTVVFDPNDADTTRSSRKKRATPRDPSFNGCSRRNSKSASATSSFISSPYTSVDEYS
Assay: [3H]SR142801 competition binding assay
Settings: [3H]SR142801, membranes of HEK293 cells transiently expressing recombinant human NK3 receptor; read-out: hNK3 Ki
Outline: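 Ki derived by Cheng-Prusoff from Hill-fitted IC50 curves, duplicates, 10 μM SB222200 defining nonspecific binding. Radioligand used at KD concentration against compound at 0.0003-10 μM; transiently transfected HEK293 membranes, 5 μg/well, 75 min room temperature, Tris-HCl/MnCl2/phosphoramidon/BSA pH 7.4. Filter-bound counts read by scintillation.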

SMILES | Ki
CC(CCN1CCC(NS(C)(=O)=O)CC1)(C(=O)NCc1cccc(OC(F)(F)F)c1)c1ccc(Cl)c(Cl)c1 (centres unmarked) [Example 21, 2-(3,4-Dichloro-phenyl)-4-(4-methanesulfonyl-amino-piperidin-1-yl)-2-methyl-N-(3-trifluoromethoxy-benzyl)-butyramide] | 147 nM
CC(CCN1CCC(NS(C)(=O)=O)CC1)(C(=O)NCc1ccc(OC(F)(F)F)cc1)c1ccc(Cl)c(Cl)c1 (centres unmarked) [Example 23, 2-(3,4-Dichloro-phenyl)-4-(4-methanesulfonyl-amino-piperidin-1-yl)-2-methyl-N-(4-trifluoromethoxy-benzyl)-butyramide] | 140 nM
CC(CCN1CCC(NS(C)(=O)=O)CC1)(C(=O)NCc1ccc(C#N)cc1)c1ccc(Cl)c(Cl)c1 (centres unmarked) [Example 27, N-(4-Cyano-benzyl)-2-(3,4-dichloro-phenyl)-4-(4-methanesulfonyl-amino-piperidin-1-yl)-2-methyl-butyramide] | 263 nM
CN(Cc1ccc(C(F)(F)F)nc1)C(=O)C(C)(CCN1CCC(NS(C)(=O)=O)CC1)c1ccc(Cl)c(Cl)c1 (centres unmarked) [Example 31, 2-(3,4-Dichloro-phenyl)-4-(4-methanesulfonyl-amino-piperidin-1-yl)-2,N-dimethyl-N-(6-trifluoromethyl-pyridin-3-ylmethyl)-butyramide] | 500 nM
CN(Cc1ccc(Cl)c(C(F)(F)F)c1)C(=O)C(CCN1CCC(NS(C)(=O)=O)CC1)c1ccc(Cl)c(Cl)c1 (centres unmarked) [Example 35, N-(4-Chloro-3-trifluoromethyl-benzyl)-2-(3,4-dichloro-phenyl)-4-(4-methanesulfonyl-amino-piperidin-1-yl)-N-methyl-butyramide] | 149 nM
CS(=O)(=O)NC1CCN(CCC(C(=O)NCc2ccc(Cl)c(C(F)(F)F)c2)c2ccc(Cl)c(Cl)c2)CC1 (centres unmarked) [Example 36, N-(4-Chloro-3-trifluoromethyl-benzyl)-2-(3,4-dichloro-phenyl)-4-(4-methanesulfonyl-amino-piperidin-1-yl)-butyramide] | 354 nM
CN(Cc1cccc(Cl)c1)C(=O)C(CCN1CCC(NS(C)(=O)=O)CC1)c1ccc(Cl)c(Cl)c1 (centres unmarked) [Example 39, N-(3-Chloro-benzyl)-2-(3,4-dichloro-phenyl)-4-(4-methanesulfonyl-amino-piperidin-1-yl)-N-methyl-butyramide] | 213 nM
CN(Cc1cccc(C(F)(F)F)c1)C(=O)C(CCN1CCC(NS(C)(=O)=O)CC1)c1ccc(Cl)c(Cl)c1 (centres unmarked) [Example 40, 2-(3,4-Dichloro-phenyl)-4-(4-methanesulfonyl-amino-piperidin-1-yl)-N-methyl-N-(3-trifluoromethyl-benzyl)-butyramide] | 280 nM
CN(Cc1ccccc1Cl)C(=O)C(CCN1CCC(NS(C)(=O)=O)CC1)c1ccc(Cl)c(Cl)c1 (centres unmarked) [Example 41, N-(2-Chloro-benzyl)-2-(3,4-dichloro-phenyl)-4-(4-methanesulfonyl-amino-piperidin-1-yl)-N-methyl-butyramide] | 259 nM
CS(=O)(=O)NC1CCN(CCC(C(=O)NCc2ccc(Cl)c(Cl)c2)c2ccc(Cl)c(Cl)c2)CC1 (centres unmarked) [Example 42, N-(3,4-Dichloro-benzyl)-2-(3,4-dichloro-phenyl)-4-(4-methanesulfonyl-amino-piperidin-1-yl)-butyramide] | 192 nM
CN(Cc1cccc(F)c1)C(=O)C(CCN1CCC(NS(C)(=O)=O)CC1)c1ccc(Cl)c(Cl)c1 (centres unmarked) [Example 43, 2-(3,4-Dichloro-phenyl)-N-(3-fluoro-benzyl)-4-(4-methanesulfonyl-amino-piperidin-1-yl)-N-methyl-butyramide] | 254 nM

The next compounds have a lower Ki than those just listed; values first:

Ki | SMILES
70.8 nM | CC(CCN1CCC(NS(C)(=O)=O)CC1)(C(=O)NCc1ccc(Cl)c(F)c1)c1ccc(Cl)c(Cl)c1 (centres unmarked) [Example 22, N-(4-Chloro-3-fluoro-benzyl)-2-(3,4-dichloro-phenyl)-4-(4-methanesulfonyl-amino-piperidin-1-yl)-2-methyl-butyramide]
71.4 nM | CC(CCN1CCC(NS(C)(=O)=O)CC1)(C(=O)NCc1ccc(Cl)c(C(F)(F)F)c1)c1ccc(Cl)c(Cl)c1 (centres unmarked) [Example 24, N-(4-Chloro-3-trifluoromethyl-benzyl)-2-(3,4-dichloro-phenyl)-4-(4-methanesulfonyl-amino-piperidin-1-yl)-2-methyl-butyramide]
28.7 nM | CN(Cc1ccc(C(F)(F)F)cc1)C(=O)C(C)(CCN1CCC(NS(C)(=O)=O)CC1)c1ccc(Cl)c(Cl)c1 (centres unmarked) [Example 25, 2-(3,4-Dichloro-phenyl)-4-(4-methanesulfonyl-amino-piperidin-1-yl)-2,N-dimethyl-N-(4-trifluoromethyl-benzyl)-butyramide]
26.5 nM | CN(Cc1ccc(Cl)cc1)C(=O)C(C)(CCN1CCC(NS(C)(=O)=O)CC1)c1ccc(Cl)c(Cl)c1 (centres unmarked) [Example 26, N-(4-Chloro-benzyl)-2-(3,4-dichloro-phenyl)-4-(4-methanesulfonyl-amino-piperidin-1-yl)-2,N-dimethyl-butyramide]
21.7 nM | CN(Cc1cccc(C(F)(F)F)c1)C(=O)C(C)(CCN1CCC(NS(C)(=O)=O)CC1)c1ccc(Cl)c(Cl)c1 (centres unmarked) [Example 28, 2-(3,4-Dichloro-phenyl)-4-(4-methanesulfonyl-amino-piperidin-1-yl)-2,N-dimethyl-N-(3-trifluoromethyl-benzyl)-butyramide]
48.5 nM | CN(Cc1cccc(Cl)c1)C(=O)C(C)(CCN1CCC(NS(C)(=O)=O)CC1)c1ccc(Cl)c(Cl)c1 (centres unmarked) [Example 29, N-(3-Chloro-benzyl)-2-(3,4-dichloro-phenyl)-4-(4-methanesulfonyl-amino-piperidin-1-yl)-2,N-dimethyl-butyramide]
123 nM | CN(Cc1cccc(F)c1)C(=O)C(C)(CCN1CCC(NS(C)(=O)=O)CC1)c1ccc(Cl)c(Cl)c1 (centres unmarked) [Example 30, 2-(3,4-Dichloro-phenyl)-N-(3-fluoro-benzyl)-4-(4-methanesulfonyl-amino-piperidin-1-yl)-2,N-dimethyl-butyramide]
61.7 nM | CN(Cc1ccc(C(F)(F)F)c(F)c1)C(=O)C(CCN1CCC(NS(C)(=O)=O)CC1)c1ccc(Cl)c(Cl)c1 (centres unmarked) [Example 32, 2-(3,4-Dichloro-phenyl)-N-(3-fluoro-4-trifluoromethyl-benzyl)-4-(4-methanesulfonyl-amino-piperidin-1-yl)-N-methyl-butyramide]
81.6 nM | CN(Cc1ccc(C(F)(F)F)cc1)C(=O)C(CCN1CCC(NS(C)(=O)=O)CC1)c1ccc(Cl)c(Cl)c1 (centres unmarked) [Example 33, 2-(3,4-Dichloro-phenyl)-4-(4-methanesulfonyl-amino-piperidin-1-yl)-N-methyl-N-(4-trifluoromethyl-benzyl)-butyramide]
77.5 nM | CN(Cc1ccc(Cl)c(Cl)c1)C(=O)C(CCN1CCC(NS(C)(=O)=O)CC1)c1ccc(Cl)c(Cl)c1 (centres unmarked) [Example 34, N-(3,4-Dichloro-benzyl)-2-(3,4-dichloro-phenyl)-4-(4-methanesulfonyl-amino-piperidin-1-yl)-N-methyl-butyramide]
78.7 nM | CN(Cc1ccc(Cl)cc1)C(=O)C(CCN1CCC(NS(C)(=O)=O)CC1)c1ccc(Cl)c(Cl)c1 (centres unmarked) [Example 37, N-(4-Chloro-benzyl)-2-(3,4-dichloro-phenyl)-4-(4-methanesulfonyl-amino-piperidin-1-yl)-N-methyl-butyramide]
92.9 nM | Cc1ccc(CN(C)C(=O)C(CCN2CCC(NS(C)(=O)=O)CC2)c2ccc(Cl)c(Cl)c2)cc1 (centres unmarked) [Example 38, 2-(3,4-Dichloro-phenyl)-4-(4-methanesulfonyl-amino-piperidin-1-yl)-N-methyl-N-(4-methyl-benzyl)-butyramide]

Reference: patent US20110021565A1, “PIPERIDINE DERIVATIVES AS NK3 ANTAGONISTS” (priority 2007, published 2011)
